Patent publication US10344060B2 (priority 2013, dated 2019)

Assays:
Test in all cases: cell-based
rNav1.7 = rNav1.7 (Rattus norvegicus, UniProt O08562); settings: for IC50: PatchXpress, tonic block, rat Nav1.7, read-out: PX rNav1.7 Tonic IC50; for rNav1.7/hNav1.7: ratio of PX tonic IC50, rat Nav1.7 over human Nav1.7
mNav1.7 = mNav1.7 (Mus musculus, UniProt Q62205); settings: for IC50: PatchXpress, tonic block, mouse Nav1.7, read-out: PX mNav1.7 Tonic IC50; for mNav1.7/hNav1.7: ratio of PX tonic IC50, mouse Nav1.7 over human Nav1.7
Chain of mNav1.7 (Q62205 whole entry): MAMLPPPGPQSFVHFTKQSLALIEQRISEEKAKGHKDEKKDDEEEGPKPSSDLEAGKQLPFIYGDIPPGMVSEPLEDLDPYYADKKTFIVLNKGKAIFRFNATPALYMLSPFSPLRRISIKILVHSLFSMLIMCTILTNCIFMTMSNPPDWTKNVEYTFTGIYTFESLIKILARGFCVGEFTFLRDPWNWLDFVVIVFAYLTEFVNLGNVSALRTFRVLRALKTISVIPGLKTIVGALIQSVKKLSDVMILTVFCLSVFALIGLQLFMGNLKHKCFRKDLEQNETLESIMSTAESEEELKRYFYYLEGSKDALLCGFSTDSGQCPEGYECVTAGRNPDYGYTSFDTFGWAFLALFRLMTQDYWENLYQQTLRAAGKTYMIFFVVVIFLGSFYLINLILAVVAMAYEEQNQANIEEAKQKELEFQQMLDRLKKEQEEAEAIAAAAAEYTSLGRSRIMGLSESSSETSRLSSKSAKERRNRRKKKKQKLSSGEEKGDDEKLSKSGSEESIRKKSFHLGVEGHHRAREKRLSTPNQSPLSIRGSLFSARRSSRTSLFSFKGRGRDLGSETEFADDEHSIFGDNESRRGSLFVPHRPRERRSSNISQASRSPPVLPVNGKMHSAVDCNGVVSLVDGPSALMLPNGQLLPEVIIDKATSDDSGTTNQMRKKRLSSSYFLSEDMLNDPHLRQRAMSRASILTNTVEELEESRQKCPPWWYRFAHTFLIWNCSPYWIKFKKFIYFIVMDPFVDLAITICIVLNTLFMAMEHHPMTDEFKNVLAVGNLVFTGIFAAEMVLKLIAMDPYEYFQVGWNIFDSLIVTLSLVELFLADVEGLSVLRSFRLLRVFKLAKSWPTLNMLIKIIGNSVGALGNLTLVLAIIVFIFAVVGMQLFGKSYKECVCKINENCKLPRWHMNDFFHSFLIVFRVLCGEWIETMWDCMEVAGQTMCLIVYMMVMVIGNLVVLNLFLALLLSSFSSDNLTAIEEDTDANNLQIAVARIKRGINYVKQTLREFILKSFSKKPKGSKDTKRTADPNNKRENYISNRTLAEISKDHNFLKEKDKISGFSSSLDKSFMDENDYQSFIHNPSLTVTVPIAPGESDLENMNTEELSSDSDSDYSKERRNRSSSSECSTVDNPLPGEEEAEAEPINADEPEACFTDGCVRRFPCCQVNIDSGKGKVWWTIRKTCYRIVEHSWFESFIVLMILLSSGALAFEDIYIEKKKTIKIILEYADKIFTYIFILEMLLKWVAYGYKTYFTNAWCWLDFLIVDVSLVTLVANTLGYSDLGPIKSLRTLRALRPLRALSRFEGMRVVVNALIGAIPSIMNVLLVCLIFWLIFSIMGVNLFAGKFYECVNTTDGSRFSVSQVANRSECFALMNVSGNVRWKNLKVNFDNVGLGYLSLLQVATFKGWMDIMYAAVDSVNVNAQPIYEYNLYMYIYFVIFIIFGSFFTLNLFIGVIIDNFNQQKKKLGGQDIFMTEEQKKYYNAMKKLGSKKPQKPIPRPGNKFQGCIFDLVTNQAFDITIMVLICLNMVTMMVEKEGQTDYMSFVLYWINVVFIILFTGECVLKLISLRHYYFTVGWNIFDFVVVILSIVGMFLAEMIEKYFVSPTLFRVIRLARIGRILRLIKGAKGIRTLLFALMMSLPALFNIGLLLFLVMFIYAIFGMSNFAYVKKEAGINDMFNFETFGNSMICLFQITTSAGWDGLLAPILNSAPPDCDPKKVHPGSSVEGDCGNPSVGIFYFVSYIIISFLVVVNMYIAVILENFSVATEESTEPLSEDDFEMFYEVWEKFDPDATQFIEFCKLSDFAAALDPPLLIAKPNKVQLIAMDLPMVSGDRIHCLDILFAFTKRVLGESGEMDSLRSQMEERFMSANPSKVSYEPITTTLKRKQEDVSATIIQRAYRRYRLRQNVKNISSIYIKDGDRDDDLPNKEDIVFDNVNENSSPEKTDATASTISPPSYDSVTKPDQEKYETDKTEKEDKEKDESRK

hNav1.7 = hNav1.7 (Homo sapiens, UniProt Q15858); type: cell-based; settings: PatchXpress, tonic block, human Nav1.7; read-out: PX hNav1.7 Tonic IC50

Chain of rNav1.7 (O08562 whole entry): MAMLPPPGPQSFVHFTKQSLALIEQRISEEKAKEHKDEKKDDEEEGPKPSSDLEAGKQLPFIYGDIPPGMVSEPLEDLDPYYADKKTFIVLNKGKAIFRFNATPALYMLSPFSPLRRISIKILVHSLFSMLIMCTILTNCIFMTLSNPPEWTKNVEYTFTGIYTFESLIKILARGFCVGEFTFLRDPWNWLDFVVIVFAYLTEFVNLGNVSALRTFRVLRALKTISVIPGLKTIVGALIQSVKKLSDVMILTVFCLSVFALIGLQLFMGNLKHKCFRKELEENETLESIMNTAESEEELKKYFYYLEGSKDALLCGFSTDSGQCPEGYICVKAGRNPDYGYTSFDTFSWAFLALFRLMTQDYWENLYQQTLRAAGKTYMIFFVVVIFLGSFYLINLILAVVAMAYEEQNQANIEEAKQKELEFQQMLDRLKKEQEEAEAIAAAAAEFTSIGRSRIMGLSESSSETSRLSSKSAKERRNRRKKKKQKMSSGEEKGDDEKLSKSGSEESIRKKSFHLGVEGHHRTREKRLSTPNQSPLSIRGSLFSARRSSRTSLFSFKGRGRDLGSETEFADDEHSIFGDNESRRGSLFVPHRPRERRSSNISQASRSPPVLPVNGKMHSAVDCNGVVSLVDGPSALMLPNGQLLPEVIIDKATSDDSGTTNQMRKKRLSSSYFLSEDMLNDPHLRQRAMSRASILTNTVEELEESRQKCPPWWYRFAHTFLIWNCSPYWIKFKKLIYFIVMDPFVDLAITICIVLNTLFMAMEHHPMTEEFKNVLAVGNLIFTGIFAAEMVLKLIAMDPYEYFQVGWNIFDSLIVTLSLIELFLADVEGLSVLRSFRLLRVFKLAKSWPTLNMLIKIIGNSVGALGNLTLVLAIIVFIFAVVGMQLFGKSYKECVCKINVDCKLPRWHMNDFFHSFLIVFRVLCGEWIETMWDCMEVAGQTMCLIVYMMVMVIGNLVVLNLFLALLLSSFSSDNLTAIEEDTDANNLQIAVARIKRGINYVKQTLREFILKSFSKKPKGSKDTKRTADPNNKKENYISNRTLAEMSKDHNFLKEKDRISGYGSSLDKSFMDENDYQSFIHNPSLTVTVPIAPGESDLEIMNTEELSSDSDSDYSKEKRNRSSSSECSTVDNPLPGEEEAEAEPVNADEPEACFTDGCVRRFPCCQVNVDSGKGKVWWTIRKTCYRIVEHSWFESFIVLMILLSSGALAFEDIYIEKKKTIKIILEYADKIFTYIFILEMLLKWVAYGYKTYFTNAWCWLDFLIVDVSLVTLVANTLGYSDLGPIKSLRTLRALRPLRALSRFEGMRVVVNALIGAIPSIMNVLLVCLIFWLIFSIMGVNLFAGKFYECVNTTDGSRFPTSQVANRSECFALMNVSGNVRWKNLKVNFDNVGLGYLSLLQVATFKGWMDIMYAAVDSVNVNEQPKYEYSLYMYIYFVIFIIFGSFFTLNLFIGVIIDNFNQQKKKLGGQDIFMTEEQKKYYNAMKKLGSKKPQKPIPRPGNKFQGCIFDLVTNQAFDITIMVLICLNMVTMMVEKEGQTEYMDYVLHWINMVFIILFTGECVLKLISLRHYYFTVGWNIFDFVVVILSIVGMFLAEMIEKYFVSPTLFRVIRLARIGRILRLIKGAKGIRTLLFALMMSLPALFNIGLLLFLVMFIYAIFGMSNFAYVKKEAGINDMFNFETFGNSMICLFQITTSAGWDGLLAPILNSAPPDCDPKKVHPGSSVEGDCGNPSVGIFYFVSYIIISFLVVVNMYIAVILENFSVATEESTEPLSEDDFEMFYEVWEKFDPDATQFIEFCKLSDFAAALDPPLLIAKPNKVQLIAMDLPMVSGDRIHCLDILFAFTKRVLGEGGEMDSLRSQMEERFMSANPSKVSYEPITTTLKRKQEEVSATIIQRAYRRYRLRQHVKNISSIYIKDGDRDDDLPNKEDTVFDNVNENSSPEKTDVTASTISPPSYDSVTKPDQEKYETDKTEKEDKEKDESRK

Row | SMILES | IC50 (rNav1.7) [nM] | rNav1.7/hNav1.7 (rNav1.7) | IC50 (mNav1.7) [nM] | mNav1.7/hNav1.7 (mNav1.7) | IC50 (hNav1.7) [nM]
1 | C#CC[C@H](N)C(=O)N[C@@H](Cc1ccc(O)cc1)C(=O)N[C@H]1CSSC[C@@H]2NC(=O)[C@@H]3CSSC[C@@H](C(=O)N[C@@H](CCCNC(=N)N)C(=O)N[C@@H](CCCCN)C(=O)N[C@@H](CCC(=O)O)C(=O)N[C@H](C(N)=O)[C@@H](C)CC)NC(=O)[C@H](Cc4c[nH]c5ccccc45)NC(=O)[C@H](C4CCCCC4)NC(=O)[C@H](CCCCN)NC(=O)[C@H](CSSC[C@H](NC(=O)[C@H]([C@@H](C)O)NC(=O)[C@H](Cc4c[nH]c5ccccc45)NC(=O)[C@H](CCCC)NC(=O)[C@H](Cc4c[nH]c5ccccc45)NC(=O)[C@H](CCCCN)NC(=O)[C@H](CCC(N)=O)NC1=O)C(=O)N[C@@H](CC(=O)O)C(=O)N[C@@H](CO)C(=O)N[C@@H](CCCCN)C(=O)N[C@@H](CCCNC(=N)N)C(=O)N[C@@H](C)C(=O)N3)NC(=O)[C@H](CCCNC(=N)N)NC(=O)[C@H](CC(C)C)NC(=O)CNC(=O)[C@H](CCC(=O)O)NC2=O [Pra-[Nle6; Chg23; Glu28]JzTx-V(1-29)] | 3.27 | 6.68 | 0.884 | 1.81 | –
2 | C#CC[C@H](N)C(=O)N[C@@H](Cc1ccc(O)cc1)C(=O)N[C@H]1CSSC[C@@H]2NC(=O)[C@@H]3CSSC[C@@H](C(=O)N[C@@H](CCCNC(=N)N)C(=O)N[C@@H](CCCCN)C(=O)N[C@@H](CCC(=O)O)C(=O)N[C@H](C(N)=O)[C@@H](C)CC)NC(=O)[C@H](Cc4c[nH]c5ccc(Br)cc45)NC(=O)[C@H](CC(C)C)NC(=O)[C@H](CCCCN)NC(=O)[C@H](CSSC[C@H](NC(=O)[C@H]([C@@H](C)O)NC(=O)[C@H](Cc4c[nH]c5ccccc45)NC(=O)[C@H](CCCC)NC(=O)[C@H](Cc4c[nH]c5ccccc45)NC(=O)[C@H](CCCCN)NC(=O)[C@H](CCC(N)=O)NC1=O)C(=O)N[C@@H](CC(=O)O)C(=O)N[C@@H](CO)C(=O)N[C@@H](CCCCN)C(=O)N[C@@H](CCCNC(=N)N)C(=O)N[C@@H](C)C(=O)N3)NC(=O)[C@H](CCCNC(=N)N)NC(=O)[C@H](CC(C)C)NC(=O)CNC(=O)[C@H](CCC(=O)O)NC2=O [Pra-[Nle6; 5-BrW24; Glu28]JzTx-V(1-29)] | 2.43 | 62.26 | 0.911 | 23.34 | –
3 | CC[C@H](C)[C@H](NC(=O)[C@H](CCCCN)NC(=O)[C@H](CCCNC(=N)N)NC(=O)[C@@H]1CSSC[C@@H]2NC(=O)[C@H](C)NC(=O)[C@H](CCCNC(=N)N)NC(=O)[C@H](CCCCN)NC(=O)[C@H](CO)NC(=O)[C@H](CC(=O)O)NC(=O)[C@@H]3CSSC[C@H](NC(=O)[C@H](CCC(=O)O)NC(=O)[C@H](CC(C)C)NC(=O)CNC(=O)[C@H](CCC(=O)O)NC(=O)[C@H](CSSC[C@H](NC(=O)[C@@H](N)Cc4ccc(O)cc4)C(=O)N[C@@H](CCC(N)=O)C(=O)N[C@@H](CCCCN)C(=O)N[C@@H](Cc4c[nH]c5ccccc45)C(=O)N[C@@H](CCSC)C(=O)N[C@@H](Cc4c[nH]c5ccccc45)C(=O)N[C@@H]([C@@H](C)O)C(=O)N3)NC2=O)C(=O)N[C@@H](CCCCN)C(=O)N[C@@H](CC(C)C)C(=O)N[C@@H](Cc2c[nH]c3ccccc23)C(=O)N1)C(=O)N[C@@H](Cc1c[nH]c2ccccc12)C(N)=O [[Glu20, Trp29]JzTx-V] | 1.3 | 0.82 | 5.08 | 3.20 | –
4 | C#CC[C@@H]1NC(=O)[C@H](CC(=O)O)NC(=O)[C@@H]2CSSC[C@@H]3NC(=O)[C@H](CCCNC(=N)N)NC(=O)[C@H](CC(C)C)NC(=O)CNC(=O)[C@H](CCC(=O)O)NC(=O)[C@H](CSSC[C@H](NC(=O)[C@@H](N)Cc4ccc(O)cc4)C(=O)N[C@@H](CCC(N)=O)C(=O)N[C@@H](CCCCN)C(=O)N[C@@H](Cc4c[nH]c5ccccc45)C(=O)N[C@@H](CCCC)C(=O)N[C@@H](Cc4c[nH]c5ccccc45)C(=O)N[C@@H]([C@@H](C)O)C(=O)N2)NC(=O)[C@H](CSSC[C@@H](C(=O)N[C@@H](CCCNC(=N)N)C(=O)N[C@@H](CCCCN)C(=O)N[C@@H](CCC(=O)O)C(=O)N[C@H](C(N)=O)[C@@H](C)CC)NC(=O)[C@H](Cc2c[nH]c4ccccc24)NC(=O)[C@H](CC(C)C)NC(=O)[C@H](CCCCN)NC3=O)NC(=O)[C@H](C)NC(=O)[C@H](CCCNC(=N)N)NC(=O)[C@H](CCCCN)NC1=O [[Nle6; Pra11; Glu28]JzTx-V(1-29)] | 3.83 | 8.10 | 3.69 | 7.81 | 0.473
5 | CCCC[C@@H]1NC(=O)[C@H](Cc2c[nH]c3ccccc23)NC(=O)[C@H](CCCCN)NC(=O)[C@H](CCC(N)=O)NC(=O)[C@@H](NC(=O)[C@H](Cc2ccc(O)cc2)NC(=O)[C@@H](N)CC#N)CSSC[C@@H]2NC(=O)[C@@H]3CSSC[C@@H](C(=O)N[C@@H](CCCNC(=N)N)C(=O)N[C@@H](CCCCN)C(=O)N[C@@H](CCC(=O)O)C(=O)N[C@H](C(N)=O)[C@@H](C)CC)NC(=O)[C@H](Cc4c[nH]c5ccccc45)NC(=O)[C@H](CC(C)C)NC(=O)[C@H](CCCCN)NC(=O)[C@H](CSSC[C@H](NC(=O)[C@H]([C@@H](C)O)NC(=O)[C@H](Cc4c[nH]c5ccccc45)NC1=O)C(=O)N[C@@H](CC(=O)O)C(=O)N[C@@H](CO)C(=O)N[C@@H](CCCCN)C(=O)N[C@@H](CCCNC(=N)N)C(=O)N[C@@H](C)C(=O)N3)NC(=O)[C@H](CCCNC(=N)N)NC(=O)[C@H](CC(C)C)NC(=O)CNC(=O)[C@H](Cc1cn(CCCOCCOCCOCCOCCOCCOCCOCCOCCOCCOCCN)nn1)NC2=O | – | 0.46 | – | 2.23 | –
6 | CCCC[C@@H]1NC(=O)[C@H](Cc2c[nH]c3ccccc23)NC(=O)[C@H](CCCCN)NC(=O)[C@H](CCC(N)=O)NC(=O)[C@@H](NC(=O)[C@H](Cc2ccc(O)cc2)NC(=O)[C@@H](N)Cc2cn(CCOCCOCCOCCOCCOCCOCCOCCOCCOCCOCCN)nn2)CSSC[C@@H]2NC(=O)[C@@H]3CSSC[C@@H](C(=O)N[C@@H](CCCNC(=N)N)C(=O)N[C@@H](CCCCN)C(=O)N[C@H](C(=O)N[C@H](C(N)=O)[C@@H](C)CC)[C@@H](C)CC)NC(=O)[C@H](Cc4c[nH]c5ccccc45)NC(=O)[C@H](CC(C)C)NC(=O)[C@H](CCCCN)NC(=O)[C@H](CSSC[C@H](NC(=O)[C@H]([C@@H](C)O)NC(=O)[C@H](Cc4c[nH]c5ccccc45)NC1=O)C(=O)N[C@@H](CC(=O)O)C(=O)N[C@@H](CO)C(=O)N[C@@H](CCCCN)C(=O)N[C@@H](CCCNC(=N)N)C(=O)N[C@@H](C)C(=O)N3)NC(=O)[C@H](CCCNC(=N)N)NC(=O)[C@H](CC(C)C)NC(=O)CNC(=O)[C@H](CCC(=O)O)NC2=O [Atz(NPEG9)-[Nle6]JzTx-V(1-29)] | – | 0.22 | – | 1.65 | –
7 | C#CC[C@H](N)C(=O)N[C@@H](Cc1ccc(O)cc1)C(=O)N[C@H]1CSSC[C@@H]2NC(=O)[C@@H]3CSSC[C@@H](C(=O)N[C@@H](CCCNC(=N)N)C(=O)N[C@@H](CCCCN)C(=O)N[C@@H](CCC(=O)O)C(=O)N[C@@H](Cc4c[nH]c5ccccc45)C(N)=O)NC(=O)[C@H](Cc4c[nH]c5ccccc45)NC(=O)[C@H](CC(C)C)NC(=O)[C@H](CCCCN)NC(=O)[C@H](CSSC[C@H](NC(=O)[C@H]([C@@H](C)O)NC(=O)[C@H](Cc4c[nH]c5ccccc45)NC(=O)[C@H](CCCC)NC(=O)[C@H](Cc4c[nH]c5ccccc45)NC(=O)[C@H](CCCCN)NC(=O)[C@H](CCC(N)=O)NC1=O)C(=O)N[C@@H](CC(=O)O)C(=O)N[C@@H](CO)C(=O)N[C@@H](CCCCN)C(=O)N[C@@H](CCCNC(=N)N)C(=O)N[C@@H](C)C(=O)N3)NC(=O)[C@H](CCCNC(=N)N)NC(=O)[C@H](CC(C)C)NC(=O)CNC(=O)[C@H](CCC(=O)O)NC2=O [Pra-[Nle6; Glu28; Trp29]JzTx-V(1-29)] | 0.097 | 0.27 | 3.11 | 8.82 | 0.352
8 | C#CC[C@@H]1NC(=O)[C@H](CC(=O)O)NC(=O)[C@@H]2CSSC[C@@H]3NC(=O)[C@H](CCCNC(=N)N)NC(=O)[C@H](CC(C)C)NC(=O)CNC(=O)[C@H](CCC(=O)O)NC(=O)[C@H](CSSC[C@H](NC(=O)[C@H](Cc4ccc(O)cc4)NC(=O)[C@@H](N)CC#N)C(=O)N[C@@H](CCC(N)=O)C(=O)N[C@@H](CCCCN)C(=O)N[C@@H](Cc4c[nH]c5ccccc45)C(=O)N[C@@H](CCCC)C(=O)N[C@@H](Cc4c[nH]c5ccccc45)C(=O)N[C@@H]([C@@H](C)O)C(=O)N2)NC(=O)[C@H](CSSC[C@@H](C(=O)N[C@@H](CCCNC(=N)N)C(=O)N[C@@H](CCCCN)C(=O)N[C@@H](CCC(=O)O)C(=O)N[C@H](C(N)=O)[C@@H](C)CC)NC(=O)[C@H](Cc2c[nH]c4ccccc24)NC(=O)[C@H](CC(C)C)NC(=O)[C@H](CCCCN)NC3=O)NC(=O)[C@H](C)NC(=O)[C@H](CCCNC(=N)N)NC(=O)[C@H](CCCCN)NC1=O [CyA-[Nle6; Pra11; Glu28]JzTx-V(1-29)] | 2.24 | 11.58 | 4.04 | 20.87 | –
